The experiment addresses T1, human renin (Homo sapiens, UniProt P00797).
T1 sequence (P00797 67-406): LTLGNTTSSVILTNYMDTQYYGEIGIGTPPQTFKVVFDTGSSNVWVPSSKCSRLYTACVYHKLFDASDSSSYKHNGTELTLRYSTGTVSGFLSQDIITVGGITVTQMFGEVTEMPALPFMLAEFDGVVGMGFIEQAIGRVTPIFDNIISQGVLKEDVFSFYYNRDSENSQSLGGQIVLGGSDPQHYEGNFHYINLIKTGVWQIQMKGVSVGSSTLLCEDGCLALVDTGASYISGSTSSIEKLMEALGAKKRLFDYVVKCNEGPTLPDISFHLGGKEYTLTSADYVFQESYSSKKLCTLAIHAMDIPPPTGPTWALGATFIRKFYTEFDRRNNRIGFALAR
Nature of the experiment: Inhibition of renin activity (human renin with sheep angiotensinogen, assay of remaining angiotensin I). Type of experiment: biochemical. The settings on record: 1 x 10 ^6M of the test compound, phosphate buffer pH 7.3, 10 minutes at 37°C, mean of 3 or 4 experiments. The protocol:
The ability of various compounds of the invention to inhibit the activity of renin was determined according to the following method, which follows essentially the procedure of Kokubu et al. [Hypertension, 5, 191-197 (1983)].
Specifically, each test compound was dissolved in 60% v/v aqueous ethanol. Human renin activity in the presence and absence of each compound was measured using sheep angiotensinogen. The total volume of 1 ml of assay mixture contained 0.1 mole/litre phosphate buffer (pH 7.3), human renin (equivalent to 0.5 ng angiotensin I per ml per minute), sheep angiotensinogen (equivalent to 200 ng angiotensin 1), 1 x 10 ^6M of the test compound, 6% v/v ethanol and angiotensinase inhibitors (10 mmole/litre sodium ethylenediaminetetraacetate and 3.4 mmole/litre 8-hydroxyquinoline). The mixture was allowed to react for 10 minutes at 37°C, and then the reaction was stopped by placing the reaction tube in a boiling water bath for 5 minutes. The mixture was then centrifuged and the supernatant (0.05-0.1 ml) was used to assay remaining angiotensin I.
An identical experiment was carried out, as a control, except that the test compound was omitted. From the values obtained were calculated the % inhibition of renin activity achieved by each test compound. The results are shown in the following Table, in which the compounds of the invention are identified by the numbers assigned to them in the foregoing list. The values given are the mean of 3 or 4 experiments.
The isomers of these test compounds employed in these experiments are those isomers prepared as described in the subsequent Examples.
A word on the inhibition: it is the change of the read-out against control, counted positive when it falls. In turn, `CC[C@H](C)[C@@H](CO)NC(=O)C[C@H](O)[C@H](CC(C)C)NC(=O)C(Cc1cscn1)NC(=O)C(Cc1cccc2ccccc12)Cc1cccc2ccccc12` (mixture of isomers) [Compound No. 223, N-[4(S)-{N-[Bis(1-naphthylmethyl)acetyl]-3-(4-thiazolyl)-DL-alanylamino}-3(S)-hydroxy-6-methyl-heptanoyl]-L-isoleucinol] gave an inhibition at 1 µM of 95%.

The molecule `C=CCC(NC(=O)C(Cc1cccc2ccccc12)Cc1cccc2ccccc12)C(=O)N[C@@H](CC(C)C)[C@@H](O)CC(=O)N[C@H](CO)[C@@H](C)CC` (mixture of isomers) [compound 291, N-[4(S)-{N-[Bis(1-naphthylmethyl)acetyl]-DL-allylglycylamino}-3(S)-hydroxy-6-methylheptanoyl]-L-isoleucinol] came in with an inhibition at 1 µM of 99%.

Turning to `CC[C@H](C)[C@@H](CO)NC(=O)C[C@H](O)[C@H](CC(C)C)NC(=O)[C@H](Cc1c[nH]cn1)NC(=O)C(Cc1cccc2ccccc12)Cc1cccc2ccccc12` [Compound No. 72, N-[4(S)-{N-[Bis(1-naphthylmethyl)acetyl]-L-histidylamino}-3(S)-hydroxy-6-methylheptanoyl]-L-isoleucinol], the inhibition at 1 µM amounted to 99%.

Consider `CC[C@H](C)CNC(=O)C[C@H](O)[C@H](CC(C)C)NC(=O)[C@H](Cc1c[nH]cn1)NC(=O)C(Cc1cccc2ccccc12)Cc1cccc2ccccc12` [Compound No. 74, 4(S)-{N-[Bis(1-naphthylmethyl)acetyl]-L-histidyl-amino}-3(S)-hydroxy-6-methyl-N-[2(S)-(-)-methylbutyl]-heptanamide], for which at 1 µM the inhibition was 98.2%.

With `CCCC[C@H](NC(=O)C(Cc1cccc2ccccc12)Cc1cccc2ccccc12)C(=O)N[C@@H](CC(C)C)[C@@H](O)CC(=O)N[C@H](CO)[C@@H](C)CC` [Compound No. 88, N-[4(S)-{N-[Bis(1-naphthylmethyl)acetyl]-L-norleucylamino}-3(S)-hydroxy-6-methylheptanoyl]-L-isoleucinol], the inhibition at 1 µM turned out to be 99%.

`CC[C@H](C)[C@@H](CO)NC(=O)C[C@H](O)[C@H](CC(C)C)NC(=O)[C@H](CCSC)NC(=O)C(Cc1cccc2ccccc12)Cc1cccc2ccccc12` [Compound No. 196, N-[4(S)-{N-[Bis(1-naphthylmethyl)acetyl]-L-methionyl-amino}-3(S)-hydroxy-6-methylheptanoyl]-L-isoleucinol] registered an inhibition at 1 µM of 93.5%.

`CCCCCCCC(NC(=O)C(Cc1cccc2ccccc12)Cc1cccc2ccccc12)C(=O)N[C@@H](CC(C)C)[C@@H](O)CC(=O)N[C@H](CO)[C@@H](C)CC` (stereo partly drawn) [Compound No. 286, N-[4(S)-{2(RS)-(Bis(1-naphthylmethyl)acetyl]amino-nonanovl}amino-3(S)-hydroxv-6-methylheptanoyl]-L-isoleucinol] gave an inhibition at 1 µM of 99%.

On to `CC(C)C[C@H](NC(=O)C(CCCCc1ccccc1)Cc1cccc2ccccc12)C(=O)N[C@@H](CC(C)C)[C@@H](O)CC(=O)NCCN1CCOCC1` (stereo partly drawn) [compound 15], for which at 1 µM the inhibition was 93.5%.

Regarding `CCOCCNC(=O)C[C@H](O)[C@H](CC(C)C)NC(=O)[C@H](CC(C)C)NC(=O)C(Cc1cccc2ccccc12)Cc1cccc2ccccc12` [compound 45, 4(S)-{N-[Bis(1-naphthylmethyl)acetyl]-L-leucylamino}-3(S)-hydroxv-6-methvl-N-(2-ethoxyethvl)heptanamide], the inhibition at 1 µM turned out to be 99%.

The molecule `CC[C@H](C)[C@@H](CO)NC(=O)C[C@H](O)[C@H](CC(C)C)NC(=O)[C@H](CCC(N)=O)NC(=O)C(Cc1cccc2ccccc12)Cc1cccc2ccccc12` [compound 208, N-[4(S)-{N-[Bis(1-naphthylmethyl)acetyl]-L-glutaminylamino}-3(S)-hydroxy-6-methylheptanoyl]-L-isoleucinol] displayed an inhibition at 1 µM of 93%.

In the case of `CC[C@H](C)[C@@H](CO)NC(=O)C[C@H](O)[C@H](CC(C)C)NC(=O)[C@H](CCC(=O)O)NC(=O)C(Cc1cccc2ccccc12)Cc1cccc2ccccc12` [compound 212], 1 µM produced 92% inhibition.

Take `CCCCCC(NC(=O)C(Cc1cccc2ccccc12)Cc1cccc2ccccc12)C(=O)N[C@@H](CC(C)C)[C@@H](O)CC(=O)NCC(C)CC` (stereo partly drawn) [compound 274]: 1 µM produced 99% inhibition.
